This note sets out measurements from patent US20260274829A1, “NEW E3 UBIQUITIN LIGASE LIGAND, PROTEIN DEGRADATION AGENT AND USE THEREOF” (GLUETACS THERAPEUTICS (SHANGHAI) CO., LTD., priority 2023, published 2026).

T1 sequence (Q96SW2 whole entry): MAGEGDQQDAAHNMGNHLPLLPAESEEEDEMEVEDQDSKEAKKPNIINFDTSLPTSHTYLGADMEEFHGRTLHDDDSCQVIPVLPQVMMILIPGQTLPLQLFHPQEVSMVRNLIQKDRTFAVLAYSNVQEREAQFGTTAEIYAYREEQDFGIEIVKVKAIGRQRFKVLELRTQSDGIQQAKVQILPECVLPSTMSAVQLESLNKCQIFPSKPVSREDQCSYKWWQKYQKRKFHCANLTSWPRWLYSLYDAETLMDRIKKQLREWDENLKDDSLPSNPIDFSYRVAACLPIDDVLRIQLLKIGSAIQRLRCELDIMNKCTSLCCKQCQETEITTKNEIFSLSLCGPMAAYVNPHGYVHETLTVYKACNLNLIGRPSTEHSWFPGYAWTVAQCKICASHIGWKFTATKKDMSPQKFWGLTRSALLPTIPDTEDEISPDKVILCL

This test concerns the target T1, human Cereblon WT GST-tagged protein (Homo sapiens, UniProt Q96SW2).
T1 construct: purchased CISBIO 64BDCRBNPEH
Nature of the test: CRBN binding, HTRF CEREBLON BINDING kit. Conditions: CRBN binding, HTRF CEREBLON BINDING kit. The gist of the method:
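HTRF competition in which test compounds displace a Thalidomide-Re tracer from GST-tagged human Cereblon WT, detected with a GST Eu antibody. Incubation lasted 3 hours at room temperature, with emission read at 620 and 665 nm. Inhibition rate was derived from 665/620 ratios relative to blank and solvent control wells.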
For orientation: In TR-FRET formats the signal depends on donor and acceptor labels being close together.
In general, IC50 refers to the midpoint of a concentration-inhibition curve. A higher IC50 goes with lower potency. `O=C1CCC(c2cncc(CN3CCN(c4ccc(-c5cc(F)c6c(c5)C(=O)N(C(C(=O)Nc5nccs5)c5ncn7c5CCC7)C6)cc4)CC3)c2)C(=O)N1` (stereo not drawn) [GT-07472, 2-(6,7-dihydro-5H-pyrrolo[1,2-c]imidazol-1-yl)-2-(6-(4-(4-((5-(2,6-dioxopiperidin-3-yl)pyridin-3-yl)methyl)piperazin-1-yl)phenyl)-4-fluoro-1-oxoisoindolin-2-yl)-N-(thiazol-2-yl)acetamide]: the IC50 was < 500 nM.

`CN(Cc1ccnc(C2CCC(=O)NC2=O)c1)C1CCN(c2ccc(-c3cc(F)c4c(c3)C(=O)N(C(C(=O)Nc3nccs3)c3ncn5c3CCC5)C4)cc2)CC1` (stereo not drawn) [GT-07473, 2-(6,7-dihydro-5H-pyrrolo[1,2-c]imidazol-1-yl)-2-(6-(4-(4-(((2-(2,6-dioxopiperidin-3-yl)pyridin-4-yl)methyl)(methyl)amino)piperidin-1-yl)phenyl)-4-fluoro-1-oxoisoindolin-2-yl)-N-(thiazol-2-yl)acetamide] showed an IC50 of 500 to 1000 nM.

On to `O=C1CCC(c2cnc(F)c(CN3CCN(c4ccc(-c5cc(F)c6c(c5)C(=O)N(C(C(=O)Nc5nccs5)c5ncn7c5CCC7)C6)cc4)CC3)c2)C(=O)N1` (stereo not drawn) [GT-07490, 2-(6,7-dihydro-5H-pyrrolo[1,2-c]imidazol-1-yl)-2-(6-(4-(4-((5-(2,6-dioxopiperidin-3-yl)-2-fluoropyridin-3-yl)methyl)piperazin-1-yl)phenyl)-4-fluoro-1-oxoisoindolin-2-yl)-N-(thiazol-2-yl)acetamide], for which the half-maximal inhibitory concentration (IC50) was < 500 nM.

Take `CN(Cc1cc(C2CCC(=O)NC2=O)cnc1F)C1CCN(c2ccc(-c3cc(F)c4c(c3)C(=O)N(C(C(=O)Nc3nccs3)c3ncn5c3CCC5)C4)cc2)CC1` (stereo not drawn) [GT-07560, 2-(6,7-dihydro-5H-pyrrolo[1,2-c]imidazol-1-yl)-2-(6-(4-(4-(((5-(2,6-dioxopiperidin-3-yl)-2-fluoropyridin-3-yl)methyl)(methyl)amino)piperidin-1-yl)phenyl)-4-fluoro-1-oxoisoindolin-2-yl)-N-(thiazol-2-yl)acetamide]: the IC50 was < 500 nM.

For `O=C1CCC(c2cnc(F)c(CN3C[C@H]4C[C@@H]3CN4c3ccc(-c4cc(F)c5c(c4)C(=O)N(C(C(=O)Nc4nccs4)c4ncn6c4CCC6)C5)cc3)c2)C(=O)N1` (stereo partly drawn) [GT-07562, 2-(6,7-dihydro-5H-pyrrolo[1,2-c]imidazol-1-yl)-2-(6-(4-((1R,4R)-5-((5-(2,6-dioxopiperidin-3-yl)-2-fluoropyridin-3-yl)methyl)-2,5-diazabicyclo[2.2.1]heptan-2-yl)phenyl)-4-fluoro-1-oxoisoindolin-2-yl)-N-(thiazol-2-yl)acetamide], the IC50 is < 500 nM.

The compound `Cc1cc(Nc2ncc(Cl)c(Nc3ccccc3S(=O)(=O)C(C)C)n2)c(OC(C)C)cc1C1CCN(Cc2cccc(N3CCC(=O)NC3=O)c2)CC1` [GT-07593, 1-(3-((4-(4-((5-chloro-4-((2-(isopropylsulfonyl)phenyl)amino)pyrimidin-2-yl)amino)-5-isopropoxy-2-methylphenyl)piperidin-1-yl)methyl)phenyl)dihydropyrimidine-2,4(1H,3H)-dione] returned an IC50 of 500 to 1000 nM.

The compound `Cc1cc(Nc2ncc(Cl)c(Nc3ccccc3S(=O)(=O)C(C)C)n2)c(OC(C)C)cc1C1CCN(Cc2cc(C3CCC(=O)NC3=O)cnc2F)CC1` (stereo not drawn) [GT-07598, 3-(5-((4-(4-((5-chloro-4-((2-(isopropylsulfonyl)phenyl)amino)pyrimidin-2-yl)amino)-5-isopropoxy-2-methylphenyl)piperidin-1-yl)methyl)-6-fluoropyridin-3-yl)piperidine-2,6-dione] yielded an IC50 of 500 to 1000 nM.

The compound `Cc1cc(Nc2ncc(Cl)c(Nc3ccccc3S(=O)(=O)C(C)C)n2)c(OC(C)C)cc1C1CCN(Cc2cncc(C3CCC(=O)NC3=O)c2)CC1` (stereo not drawn) [GT-07601, 3-(5-((4-(4-((5-chloro-4-((2-(isopropylsulfonyl)phenyl)amino)pyrimidin-2-yl)amino)-5-isopropoxy-2-methylphenyl)piperidin-1-yl)methyl)pyridin-3-yl)piperidine-2,6-dione] registered an IC50 of 1000 to 1900 nM.

Turning to `COc1cc(N2CCC(N3CCN(Cc4ccc(C5CCC(=O)NC5=O)cc4)CC3)CC2)ccc1Nc1ncc(Cl)c(Nc2ccccc2P(C)(C)=O)n1` (stereo not drawn) [GT-07602, 3-(4-((4-(1-(4-((5-chloro-4-((2-(dimethylphosphoryl)phenyl)amino)pyrimidin-2-yl)amino)-3-methoxyphenyl)piperidin-4-yl)piperazin-1-yl)methyl)phenyl)piperidine-2,6-dione], the IC50 is < 500 nM.

In turn, `COc1cc(N2CCC(N3CCN(Cc4cccc(N5CCC(=O)NC5=O)c4)CC3)CC2)ccc1Nc1ncc(Cl)c(Nc2ccccc2P(C)(C)=O)n1` [GT-07604, 1-(3-((4-(1-(4-((5-chloro-4-((2-(dimethylphosphoryl)phenyl)amino)pyrimidin-2-yl)amino)-3-methoxyphenyl)piperidin-4-yl)piperazin-1-yl)methyl)phenyl)dihydropyrimidine-2,4(1H,3H)-dione] showed a concentration for half-maximal inhibition (IC50) of 1000 to 1900 nM.

As to `COc1cc(N2CCC(N3CCN(Cc4cccc(NC5CCC(=O)NC5=O)c4)CC3)CC2)ccc1Nc1ncc(Cl)c(Nc2ccccc2P(C)(C)=O)n1` (stereo not drawn) [GT-07605, 3-((3-((4-(1-(4-((5-chloro-4-((2-(dimethylphosphoryl)phenyl)amino)pyrimidin-2-yl)amino)-3-methoxyphenyl)piperidin-4-yl)piperazin-1-yl)methyl)phenyl)amino)piperidine-2,6-dione], the IC50 was 1000 to 1900 nM.

`COc1cc(N2CCC(N3CCN(Cc4cc(C5CCC(=O)NC5=O)cnc4F)CC3)CC2)ccc1Nc1ncc(Cl)c(Nc2ccccc2P(C)(C)=O)n1` (stereo not drawn) [GT-07611, 3-(5-((4-(1-(4-((5-chloro-4-((2-(dimethylphosphoryl)phenyl)amino)pyrimidin-2-yl)amino)-3-methoxyphenyl)piperidin-4-yl)piperazin-1-yl)methyl)-6-fluoropyridin-3-yl)piperidine-2,6-dione] displayed an IC50 of 500 to 1000 nM.

`COc1cc(N2CCC(N3CCN(Cc4ccc(C5CCC(=O)NC5=O)cn4)CC3)CC2)ccc1Nc1ncc(Cl)c(Nc2ccccc2P(C)(C)=O)n1` (stereo not drawn) [GT-07613, 3-(6-((4-(1-(4-((5-chloro-4-((2-(dimethylphosphoryl)phenyl)amino)pyrimidin-2-yl)amino)-3-methoxyphenyl)piperidin-4-yl)piperazin-1-yl)methyl)pyridin-3-yl)piperidine-2,6-dione] had an IC50 of 500 to 1000 nM.

In turn, `COc1cc(N2CCC(N3CCN(Cc4cncc(C5CCC(=O)NC5=O)c4)CC3)CC2)ccc1Nc1ncc(Cl)c(Nc2ccccc2P(C)(C)=O)n1` (stereo not drawn) [GT-07614, 3-(5-((4-(1-(4-((5-chloro-4-((2-(dimethylphosphoryl)phenyl)amino)pyrimidin-2-yl)amino)-3-methoxyphenyl)piperidin-4-yl)piperazin-1-yl)methyl)pyridin-3-yl)piperidine-2,6-dione] came in with an IC50 of 1000 to 1900 nM.

In turn, `COc1cc(N2CCC(N(C)Cc3cccc(N4CCC(=O)NC4=O)c3)CC2)ccc1Nc1ncc(Cl)c(Nc2ccccc2P(C)(C)=O)n1` [GT-07616, 1-(3-(((1-(4-((5-chloro-4-((2-(dimethylphosphoryl)phenyl)amino)pyrimidin-2-yl)amino)-3-methoxyphenyl)piperidin-4-yl)(methyl)amino)methyl)phenyl)dihydropyrimidine-2,4(1H,3H)-dione] showed an IC50 of 1000 to 1900 nM.

`COc1cc(N2CCC(N(C)Cc3ccc(N4CCC(=O)NC4=O)cn3)CC2)ccc1Nc1ncc(Cl)c(Nc2ccccc2P(C)(C)=O)n1` [GT-07617, 1-(6-(((1-(4-((5-chloro-4-((2-(dimethylphosphoryl)phenyl)amino)pyrimidin-2-yl)amino)-3-methoxyphenyl)piperidin-4-yl)(methyl)amino)methyl)pyridin-3-yl)dihydropyrimidine-2,4(1H,3H)-dione]: the IC50 lay within 1000 to 1900 nM.

As for `COc1cc(N2CCC(N(C)Cc3cncc(N4CCC(=O)NC4=O)c3)CC2)ccc1Nc1ncc(Cl)c(Nc2ccccc2P(C)(C)=O)n1` [GT-07695, 1-(5-(((1-(4-((5-chloro-4-((2-(dimethylphosphoryl)phenyl)amino)pyrimidin-2-yl)amino)-3-methoxyphenyl)piperidin-4-yl)(methyl)amino)methyl)pyridin-3-yl)dihydropyrimidine-2,4(1H,3H)-dione], the IC50 was in the range of 1000 to 1900 nM.

For the compound `COc1cc(N2CCC(N(C)Cc3cc(C4CCC(=O)NC4=O)cnc3F)CC2)ccc1Nc1ncc(Cl)c(Nc2ccccc2P(C)(C)=O)n1` (stereo not drawn) [GT-07696, 3-(5-(((1-(4-((5-chloro-4-((2-(dimethylphosphoryl)phenyl)amino)pyrimidin-2-yl)amino)-3-methoxyphenyl)piperidin-4-yl)(methyl)amino)methyl)-6-fluoropyridin-3-yl)piperidine-2,6-dione], the IC50 was < 500 nM.

`COc1cc(N2CCC(N(C)Cc3ccc(C4CCC(=O)NC4=O)cn3)CC2)ccc1Nc1ncc(Cl)c(Nc2ccccc2P(C)(C)=O)n1` (stereo not drawn) [GT-07698, 3-(6-(((1-(4-((5-chloro-4-((2-(dimethylphosphoryl)phenyl)amino)pyrimidin-2-yl)amino)-3-methoxyphenyl)piperidin-4-yl)(methyl)amino)methyl)pyridin-3-yl)piperidine-2,6-dione] gave an IC50 of 1000 to 1900 nM.

`COc1cc(N2CCC(N(C)Cc3cncc(C4CCC(=O)NC4=O)c3)CC2)ccc1Nc1ncc(Cl)c(Nc2ccccc2P(C)(C)=O)n1` (stereo not drawn) [GT-07699, 3-(5-(((1-(4-((5-chloro-4-((2-(dimethylphosphoryl)phenyl)amino)pyrimidin-2-yl)amino)-3-methoxyphenyl)piperidin-4-yl)(methyl)amino)methyl)pyridin-3-yl)piperidine-2,6-dione] registered an IC50 of 500 to 1000 nM.

With `CCc1cc2c(cc1N1CCC(N3CCN(Cc4cncc(N5CCC(=O)NC5=O)c4)CC3)CC1)C(C)(C)c1[nH]c3cc(C#N)ccc3c1C2=O` [GT-07702, 8-(4-(4-((5-(2,4-dioxotetrahydropyrimidin-1(2H)-yl)pyridin-3-yl)methyl)piperazin-1-yl)piperidin-1-yl)-9-ethyl-6,6-dimethyl-11-oxo-6,11-dihydro-5H-benzo[b]carbazole-3-carbonitrile], the IC50 is < 500 nM.
